Experimental data published in US5681925A, “Trifunctional antithrombin and antiplatelet peptides” (priority 1995, dated 1997).
Where two headings read alike, the source gives them in different places. One block for each molecule: values may come before it. Bridge positions count the residues as written; N and C are the ends. Square brackets hold non-standard residues; d marks the D form. Ends that are not written are not given here. Peptide text beside a SMILES is read from it. Cha = N[C@@H](CC1CCCCC1)C(=O)O; Nle = CCCC[C@H](N)C(=O)O

How the values were obtained:
[1] = test system: human platelets
Method: (§1) Human platelet-rich plasma (PRP) is prepared by centrifugation at 200 g-forces for 10 min. at room temperature. Platelet poor plasma (PPP) is prepared by centrifugation at 2,000 g-forces for 10 min. PRP is exposed only to plastic laboratory ware. All experiments are completed within 3 hours of blood collection. Platelet aggregation is measured photometrically using a dual channel aggregometer (Chrono-log Corp., Haverstown, Pa. 19083). One hundred percent light transmission is defined with autologus PPP. Percent maximal change in light transmission is determined from PRP following addition of ADP (1 μM) or thrombin. Thrombin (0.2-2.0 Units/ml)-induced platelet aggregation is concentration dependent and the half-maximal concentration is used for inhibition studies. Peptide 2 (SEQ ID NO: 2) is incubated with PRP (0.45 ml) for 30 seconds prior to the addition of ADP or thrombin. Aggregation is measured in a total volume of 0.5 ml. Inhibitory responses are expressed as percent inhibition when compared to a control value. The concentration resulting in 50% inhibition of aggregation. (IC50) is calculated by simple linear regression.
(§2) Human platelet-rich plasma (PRP) is prepared by centrifugation at 200 g-forces for 10 min. room temperature. Platelet poor plasma (PPP) is prepared by centrifugation at 2,000 g-forces for 10 min. PRP is exposed only to plastic laboratory ware. All experiments are completed within 3 hours of blood collection. Platelet aggregation is measured photometrically using a Chrono-log dual channel aggregometer (Chrono-log Corp., Haverstown, Pa. 19083). One hundred percent light transmission is defined with autologus PPP. Percent maximal change in light transmission is determined from PRP following addition of ADP (1 μM) or thrombin. Thrombin (0.2-2.0 Units/ml)-induced platelet aggregation is concentration dependent and the half-maximal concentration is used for inhibition studies. Peptide 1 (SEQ ID NO: 1) is incubated with PRP (0.45 ml) for 30 seconds prior to the addition of ADP or thrombin. Aggregation is measured in a total volume of 0.5 ml. Inhibitory responses are expressed as percent inhibition when compared to a control value. The concentration resulting in 50% inhibition of aggregation (IC50) is calculated by simple linear regression.

[2] = test system: human platelets; remark: listed apart in the source
Method: as §1, §2

[3] = target: T1, bovine thrombin (Bos taurus, UniProt P00735); experiment: Thrombin clotting time in human plasma; type: biochemical
T1 construct: purchased Sigma Diagnostics, St. Louis, Mo
Method: (§3) Activated partial thromboplastin time (aPTT) determinations are carried out using the reagents and methods of Dade Diagnostics, Inc. (Aguada, Puerto Rico 00602). Thrombin clotting times are determined by incubating 0.1 ml of rat plasma at 37° C. with 0.1 ml of 0.1M Tris buffer, pH 7.5 for 30 seconds. Coagulation is started with 0.1 ml of bovine thrombin (Sigma Diagnostics, St. Louis, Mo. 63178) solution (12 NIH units/ml). All clotting times are measured semiautomatically using a MLA-Electra 750 automatic coagualation timer, MLA, Inc. (Pleasantville, N.Y. 10570). The concentration required for doubling the clotting time (ID2) is calculated using simple linear regression.
(§4) Activated partial thromboplastin time (aPTT) determinations are carried out using the reagents and methods of Dade Diagnostics, Inc. (Aguada, Puerto Rico 0602). Thrombin clotting times are determined by incubating 0.1 ml of rat plasma at 37° C. with 0.1 ml of 0.1M Tris buffer, pH 7.5 for 30 seconds. Coagulation is started with 0.1 ml of bovine thrombin (Sigma Diagnostics, St. Louis, Mo. 63178) solution (12 NIH units/ml). All clotting times are measured semiautomatically using a MLA-Electra 750 automatic coagualation timer, MLA, Inc. (Pleasantville, N.Y. 10570). The concentration required for doubling the clotting time (ID2) is calculated using simple linear regression.

[4] = test system: human plasma; experiment: Activated partial thromboplastin time (aPTT) in human plasma; type: biochemical
Method: as §3, §4

[5] = test system: dog platelets; experiment: Intravenous infusion in anesthetized dogs: platelet aggregation; conditions: after 1 nmol/kg/min infusion is stopped
Method: (§5) Dogs are anesthetized with sodium pentobarbital (30 mg/kg, i.v.). The femoral artery and both femoral veins are isolated and cannulated for the recording of blood pressure (Gould P23ID, Gould Inc., Medical Products Division, Oxnard, Calif. 93030), blood sampling, and drug administration. Limb leads are placed subcutaneously for monitoring of lead II ECG. Blood pressure and ECG measurements are recorded (Gould 440 recorder, Gould Inc., Instrument Systems Division, Cleveland, Ohio 44114).
(§6) Platelet aggregation in blood is performed in saline diluted (1:2) citrated blood using a whole blood aggregomenter (Chrono-log, model 540-VS). Aliquots of diluted blood are placed in plastic cuvettes and incubated at 37° C. for 15 min. Addition of ADP (2 μM) or thrombin (0.4 U/ml) is used to induce aggregation and the change in electrical impedance is registered on a strip chart recorder. Aggregation is measured in a total blood volume of 1.0 ml. Inhibitory responses are expressed as percent inhibition when compared to a control value. The concentration resulting in 50% inhibition of aggregation (IC50) is calculated by simple linear regression.

[6] = test system: rat whole blood platelets; conditions: read-out: IC50 whole blood platelet aggregation, ADP (0.5 μM) and thrombin (0.025 U/ml)
Method: as §6

[7] = test system: human whole blood platelets; conditions: read-out: IC50 whole blood platelet aggregation, ADP (0.5 μM) and thrombin (0.025 U/ml)
Method: as §6

[8] = test system: thrombin; experiment: Intravenous infusion in anesthetized dogs: thrombin time and aPTT
Method: as §5
Activated partial thromboplastin time (aPTT) determinations are carried out using the reagents and methods of Dade Diagnostics, Inc. (Aguada, Puerto Rico 0602). Thrombin clotting times are determined by incubating 0.1 ml of rat plasma at 37° C. with 0.1 ml of 0.1M Tris buffer, pH 7.5 for 30 seconds. Coagulation is started with 0.1 ml of bovine thrombin (Sigma Diagnostics, St. Louis, Mo. 63178) solution (12 NIH units/ml). All clotting times are measured semiautomatically using a MLA-Electra 750 automatic coagualation timer, MLA, Inc. (Pleasantville, N.Y. 10570). The concentration required for doubling the clotting time (ID2) is calculated using simple linear regression. […] Estimation of t1/2 is made by linear regression of the response data over time.

[9] = dog, in vivo
Method: as §5
Template bleeding times are performed on the median surface of the left leg after the hair has been removed (Nair, Carter-Wallace, Inc., New York, N.Y. 10105) using a Surgicutt® bleeding time device (International Technidyne Corp., Edison, N.J. 08820). Template bleeding times are determined 60 and 30 min before administration of the drug, 15, 30, 60, 120, 180 and 240 min after drug administration.
Whole blood cell counts and analysis of the hemoglobin content are determined on a 140 μL blood sample anticoagulated with EDTA processed with a hematology analyzer (Technicon El, Miles Technicon, Tarrytown, N.Y. 10591). Samples were taken at 60 and 30 min before administration of the drug, 15, 30, 60, 120, 180 and 240 min after drug administration.

Molecule: CN[C@H](Cc1ccccc1)C(=O)N1CCC[C@H]1C(=O)N[C@@H](CCCNC(=N)N)C(=O)O [Peptide 2d, (CH3)fPR, reference compound]
IC50 ([1]; 3 h): > 1000 µM
IC50 ([2]; 3 h): 0.2 µM

Molecule: CC[C@H](C)[C@H](NC(=O)[C@@H]1CCCN1C(=O)[C@H](CCC(=O)O)NC(=O)[C@H](Cc1ccc(O)cc1)NC(=O)[C@H](CC(=O)O)NC(=O)CNC(=O)[C@H]1CSSC[C@@H](NC(=O)CNC(=O)[C@@H]2CCCN2C(=O)[C@H](CCCNC(=N)N)NC(=O)[C@@H]2CCCN2C(=O)[C@H](N)Cc2ccccc2)C(=O)NCC(=O)N[C@@H](CCCNC(=N)N)C(=O)NCC(=O)N[C@@H](CC(=O)O)C(=O)N[C@@H](Cc2ccccc2)C(=O)N2CCC[C@H]2C(=O)N1)C(=O)N1CCC[C@H]1C(=O)N[C@@H](CCC(=O)O)C(=O)N[C@@H](CCC(=O)O)C(=O)N[C@@H](C)C(=O)N[C@@H](CC1CCCCC1)C(=O)N[C@H](CCC(=O)O)C(=O)O [Peptide 2, fPRPGcGRGDFPcGDYEPIPEEA(Cha)e] (H-[dF]PRPG[dC]GRGDFP[dC]GDYEPIPEEA[Cha][dE]-OH; disulfide 6-13)
IC50 ([1]; 3 h): ~19 µM
IC50 ([2]; 3 h): 0.06 ± 0.026 µM

Molecule: CCCC[C@@H]1NC(=O)[C@H](CC(=O)O)NC(=O)CNC(=O)[C@H](CCCNC(=N)N)NC(=O)CNC(=O)[C@H](NC(=O)CNC(=O)[C@@H]2CCCN2C(=O)[C@H](CCCNC(=N)N)NC(=O)[C@@H]2CCCN2C(=O)[C@H](N)Cc2ccccc2)CSSC[C@H](C(=O)NCC(=O)N[C@@H](CC(=O)O)C(=O)N[C@@H](Cc2ccc(O)cc2)C(=O)N[C@@H](CCC(=O)O)C(=O)N2CCC[C@H]2C(=O)N[C@H](C(=O)N2CCC[C@H]2C(=O)N[C@@H](CCC(=O)O)C(=O)N[C@@H](CCC(=O)O)C(=O)N[C@@H](C)C(=O)N[C@@H](CC2CCCCC2)C(=O)N[C@H](CCC(=O)O)C(=O)O)[C@@H](C)CC)NC(=O)[C@@H]2CCCN2C1=O [Peptide 1, fPRPGcGRGD(Nle)PcGDYEPIPEEA(Cha)e] (H-[dF]PRPG[dC]GRGD[Nle]P[dC]GDYEPIPEEA[Cha][dE]-OH; disulfide 6-13)
pharmacodynamic t1/2, restoration of platelet activity [5]: 12.8 ± 1.1 min
IC50 [6]: 0.0425 µM
IC50 [7]: 0.0029 µM
pharmacodynamic t1/2, restoration of thrombin activity ([8]; after 1 hr infusion of 1 nmol/kg/min): 17 ± 0.1 min
pharmacodynamic t1/2, restoration of thrombin activity ([8]; after 1 hr infusion of 5 nmol/kg/min): 26 ± 3.2 min
time after infusion ends at which blood pressure and heart rate return to baseline control values [9]: 2 h
IC50 ([1]; 3 h): 11.4 µM

The next lines start with results.

Relative activity vs Peptide 1: Coagulation Thrombin Time ([3]; ratio to Peptide 1 (ID2 15 nM), 1 = as active as Peptide 1): 0.86
Molecule: fPRPGcvRGD(Nle)PcGDYEPIPEEA(Cha)e ([dF]PRPG[dC][dV]RGD[Nle]P[dC]GDYEPIPEEA[Cha][dE]; disulfide 6-13 (inferred)) [Peptide 11]
Relative activity vs Peptide 1: Coagulation aPTT ([4]; ratio to Peptide 1 (ID2 27.9 nM), 1 = as active as Peptide 1): 0.37
Relative activity vs Peptide 1: Aggregation Thrombin ([2]; ratio to Peptide 1 (IC50 5.8 nM), 1 = as active as Peptide 1): 0.13

ID2 Thrombin Time ([3]; human plasma, concentration doubling clotting time): 14 ± 3 nM
IC50 ([1]; read-out: IC50 inhibition of platelet aggregation, ADP, human PRP, ADP-induced): 35.9 ± 0.5 µM
IC50 ([2]; read-out: IC50 Thrombin, human PRP, thrombin-induced): 0.408 ± 0.18 µM
Molecule: fPRPGCGRGD(Nle)PCGDYEPIPEEAYD [Peptide 4, reference compound]
anticoagulant activity (in words) ([4]; aPTT and thrombin time): less anticoagulant activity than Peptide 2
ID2 aPTT ([4]; concentration doubling clotting time): 115 ± 24 nM
inhibition of ADP-induced platelet aggregation (in words) ([1]; human platelets): approximately equivalent to Peptide 1
fold less active than Peptide 1, thrombin-induced platelet aggregation ([2]; human platelets): approximately 1,000 fold
